Reference: US20240024504A1, “SITE-SELECTIVE LYSINE ACETYLATION OF HUMAN IMMUNOGLOBULIN G AND IgG-RELATED PRODUCTS FOR IMMUNOTHERAPY” (The Chinese University of Hong Kong, priority 2022, published 2024)
Numbered stars: 1 amine (or outer) side, 2 acyl side, 3 side chain; on linkers, the order of the positions; unused ones are H or OH. Bridge positions count the residues as written; N and C are the ends. Square brackets hold non-standard residues; d marks the D form. Peptide text beside a SMILES is read from it. * marks the point of attachment. X1 = O=C(O)c1cc(NC(=S)*)ccc1-c1c2ccc(=O)cc-2oc2cc(O)ccc12; X4 = [N-]=[N+]=NCC(=O)Nc1ccc(N*)cc1; Dap = NC[C@H](N)C(=O)O; X3 = O=C(C[*:2])[*:1]; X2 = Oc1ccc(N*)cc1; βAla = NCCC(=O)O

Legend:
human IgG Fc = assay: Peptide-driven acetylation (labelling) of human IgG Fc, SDS-PAGE in-gel fluorescence / MALDI-TOF MS; format: biochemical; settings: for yield of the labeled Fc: MS peak area after Glu-C digestion (F11: in-gel fluorescence, ImageJ)
Method: (§1) FIG. 2A-2C Kinetic details of the acetylation reaction and hydrolysis of F1. (FIG. 2A) Reactions at different peptide-to-IgG Fc ratios. Reactions were performed in PBS buffer (pH 7.4) at 37° C. for 1 h. Protein loading in each lane is 2 μg. (FIG. 2B) Reaction kinetics. Reaction condition: 4 μM IgG Fc, 24 μM F1, PBS buffer (pH 7.4), at 37° C. The reactions were quenched with 1% SDS at different time points. After conducting an SPAAC reaction with DBCO-PEG4-TAMRA, the reactions were denatured and resolved by SDS-PAGE. Product conversion was quantified based on band-shift in the SDS-PAGE image. (FIG. 2C) Hydrolysis of peptide ester (24 μM) monitored by HPLC in pH 7.4 PBS buffer at 37° C.
FIG. 27A-27B The study of IgG Fc acetylation reaction with different payloads. (FIG. 27A) A set of reactive peptides with different acyl groups tested for labeling efficiency. (FIG. 27B) The yields of IgG Fc labeled by peptides at 37° C. Reaction condition: 4 μM IgG Fc, 24 μM peptide, in PBS buffer (pH 7.4) for 2 h or in borate buffer (pH 8.5) for 15 h, respectively. […] The yields were quantified by MS analysis with in-solution Glu-C digestion of modified Fc or by in-gel fluorescent image (FIGS. 27A-27B, […]).
(§2) IgG or IgG Fc labelling reactions. Unless otherwise noted, the final concentrations of proteins were 4 μM and peptides were 24 μM. The conjugation reactions were performed in PBS buffer (pH 7.4, 137 mM NaCl, 2.7 mM KCl, 10 mM Na2HPO4, 1.8 mM KH2PO4) at 37° C. for 1 h and stopped by 1% SDS. For copper-free click chemistry, the protein-peptide reaction mixture was first incubated with 100 uM DBCO-TAMRA at room temperature for 2 h and then denatured in the presence of loading dye. After resolved by SDS-PAGE, the gel was first observed in the fluorescence channel, and then stained with Coomassie Brilliant Blue dye.
Characterization of IgG or IgG Fc modification by MALDI-TOF MS. To characterize Fc region, 5 μg protein sample was used. Firstly, Fc was treated in the presence of TCEP (20 mM) at 60° C. for 10 min. Then, the sample was acidified with TFA at a pH of <4. After prewetting, C4 ZipTip was equilibrated with water (0.1% TFA). Binding of Fc was realized by aspirating and dispensing sample 7 to 10 cycles. The tip was next washed 3 times and eluted by 5 μL 70% acetonitrile/water solution with 0.1% TFA. Now the sample was ready for MALDI-TOF MS analysis. For characterization of modified Fc region, the reaction was first quenched by acidification (For acid labile antibodies, the peptide f-F0 could be used to quench the reaction.). After coupling with DBCO-TAMRA, the sample was reduced. Then, the sample was desalted and concentrated by using the same procedure. […] Next the sample was purified by HPLC with C4 column, and peaks were collected and lyophilized. The sample was dissolved in 50% acetonitrile/water solution with 0.1% TFA and subjected to MALDI-TOF MS analysis.

atezolizumab [1] = target: T1, atezolizumab (Homo sapiens, UniProt P01857, D239E/L241M/N180A); assay: biochemical
Description: Ligand-induced fluorescence change was used to determine the Kd value. (FIG. 13A) Dose response curve. (FIG. 13B) Capillary scans. (FIG. 13C) MST traces.
Ligand-induced fluorescence change was used to determine the Kd value. (FIG. 14A) Dose response curve. (FIG. 14B) Capillary scans. (FIG. 14C) MST traces.
Ligand-induced fluorescence change was used to determine the Kd value. (FIG. 15A) Dose response curve. (FIG. 15B) Capillary scans. (FIG. 15C) MST traces.
Microscale thermophoresis (MST) binding experiments. […] The measurements were performed in phosphate buffered saline supplemented with 0.05% Tween-20 (PBS-T). […] The measurements were performed on a NanoTemper Technologies Monolith NT.115 instrument. The settings of MST power was medium and LED power was Auto-detect.

IgG Fc from mice = assay: Target selectivity of peptide-driven acetylation towards IgG from different species (mouse); format: biochemical; settings: 4 μM protein, 24 μM F1, PBS pH 7.4, 37° C., 1 h
Method: (§3) FIG. 10 Target selectivity of peptide-driven acetylation towards IgG from different species. Reaction condition: 4 μM protein, 24 μM F1, PBS buffer (pH 7.4), at 37° C. for 1 h. The reactions were quenched with 1% SDS and DBCO-TAMRA was added at room temperature for 1.5 h for copper-free click chemistry. […] Each lane contains […] of antibodies.
as §2

atezolizumab [2] = target: T1, atezolizumab; assay: Acetylation of atezolizumab by peptide F1, MALDI-TOF MS / SDS-PAGE; format: biochemical; parameters: purchased SelleckChem A2004; settings: for heavy chain modified: 4 μM Atezo, 24 μM F1, PBS pH 7.4, 37° C., MALDI-TOF MS
Method: (FIG. 4A) Acetylation reaction monitored by SDS-PAGE and fluorescent scanning. Reaction condition: 4 μM Atezo, 24 μM F1, PBS buffer (pH 7.4), at 37° C. for 1 h. The reactions were quenched with 1% SDS and DBCO-TAMRA was added at room temperature for 1.5 h for SPAAC reaction before SDS-PAGE and in-gel fluorescent imaging. […] (FIG. 4C) In-gel digestion for MALDI-TOF MS analysis to identify the acetylation site. Modified Lys 248 was marked in red. L chain: light chain, H chain: heavy chain, M-H chain: modified heavy chain, Atezo: atezolizumab.
as §2
Characterization of IgG or IgG Fc modification by MALDI-TOF MS. To characterize Fc region, 5 μg protein sample was used. Firstly, Fc was treated in the presence of TCEP (20 mM) at 60° C. for 10 min. Then, the sample was acidified with TFA at a pH of <4. After prewetting, C4 ZipTip was equilibrated with water (0.1% TFA). Binding of Fc was realized by aspirating and dispensing sample 7 to 10 cycles. The tip was next washed 3 times and eluted by 5 μL 70% acetonitrile/water solution with 0.1% TFA. Now the sample was ready for MALDI-TOF MS analysis. For characterization of modified Fc region, the reaction was first quenched by acidification (For acid labile antibodies, the peptide f-F0 could be used to quench the reaction.). After coupling with DBCO-TAMRA, the sample was reduced. Then, the sample was desalted and concentrated by using the same procedure. […]

rabbit IgG = assay: Target selectivity of peptide-driven acetylation towards IgG from different species (rabbit); format: biochemical; settings: 4 μM protein, 24 μM F1, PBS pH 7.4, 37° C., 1 h
Method: as §3, §2

[3] = Hydrolysis of peptide ester monitored by HPLC; format: physicochemical
Method: as §1

[4] = system: IgG Fc in a protein mixture of HeLa cell lysate; settings: Fc-spiked HeLa cell lysate, RIPA lysis buffer pH 7.4, 37° C., 1 h, 6-fold excess of peptide
Method: Fc protein was spiked to a mixture of proteins from HeLa cell lysate, and the F1 peptide was added to the lysate to initiate acetylation reaction. […] Reactions were performed in pH 7.4 RIPA lysis buffer at 37° C. for 1 h with a 6-fold excess of peptides, followed by copper-free click chemistry with DBCO-TAMRA. Then the reactions were analyzed by denaturing SDS-PAGE and imaged using in-gel fluorescence scanning and Coomassie blue staining.

[5] = 4 μM IgG Fc, 24 μM peptide, 37° C., PBS buffer (pH 7.4) for 2 h
[6] = 4 μM IgG Fc, 24 μM peptide, 37° C., borate buffer (pH 8.5) for 15 h

T1 sequence (P01857 whole entry N180A/D239E/L241M, looked up, other chains not shown): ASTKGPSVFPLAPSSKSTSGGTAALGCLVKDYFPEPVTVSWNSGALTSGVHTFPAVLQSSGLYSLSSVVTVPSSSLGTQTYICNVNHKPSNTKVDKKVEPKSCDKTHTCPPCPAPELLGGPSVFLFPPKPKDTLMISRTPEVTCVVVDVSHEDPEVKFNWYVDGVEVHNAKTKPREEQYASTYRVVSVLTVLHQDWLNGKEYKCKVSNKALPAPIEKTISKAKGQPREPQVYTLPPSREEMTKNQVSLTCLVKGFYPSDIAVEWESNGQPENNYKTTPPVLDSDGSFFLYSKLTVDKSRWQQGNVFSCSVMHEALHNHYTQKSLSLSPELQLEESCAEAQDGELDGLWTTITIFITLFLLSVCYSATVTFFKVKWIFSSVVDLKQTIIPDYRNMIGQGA

CC(=O)N[C@@H](CC(=O)O)C(=O)N[C@H]1CNC(=O)CSC[C@@H](C(=O)N[C@H](C(N)=O)[C@@H](C)O)NC(=O)[C@H](Cc2c[nH]c3ccccc23)NC(=O)[C@H](C(C)C)NC(=O)[C@H](CC(C)C)NC(=O)C(CCC(=O)Nc2ccc(OC(=O)CCCC[C@@H]3SC[C@@H]4NC(=O)N[C@@H]43)cc2)NC(=O)CNC(=O)[C@H](CC(C)C)NC(=O)[C@H](Cc2c[nH]cn2)NC(=O)[C@H](Cc2c[nH]c3ccccc23)NC(=O)[C@H](C)NC1=O (some centres unmarked) [F9]
yield of the labeled Fc (human IgG Fc; [5]): about 18% | yield of the labeled Fc (human IgG Fc; [6]): 73%

C#CCCC(=O)Oc1ccc(NC(=O)CC[C@@H]2NC(=O)CNC(=O)[C@H](CC(C)C)NC(=O)[C@H](Cc3c[nH]cn3)NC(=O)[C@H](Cc3c[nH]c4ccccc34)NC(=O)[C@H](C)NC(=O)[C@@H](NC(=O)[C@H](CC(=O)O)NC(C)=O)CNC(=O)CSC[C@@H](C(=O)N[C@H](C(N)=O)[C@@H](C)O)NC(=O)[C@H](Cc3c[nH]c4ccccc34)NC(=O)[C@H](C(C)C)NC(=O)[C@H](CC(C)C)NC2=O)cc1 [F8]
yield of the labeled Fc (human IgG Fc; [5]): about 17% | yield of the labeled Fc (human IgG Fc; [6]): 84%

CC(=O)N[C@@H](CC(=O)O)C(=O)N[C@H]1CNC(=O)CSC[C@@H](C(=O)N[C@H](C(N)=O)[C@@H](C)O)NC(=O)[C@H](Cc2c[nH]c3ccccc23)NC(=O)[C@H](C(C)C)NC(=O)[C@H](CC(C)C)NC(=O)[C@H](CCC(=O)Nc2ccc(OC(C)=O)cc2)NC(=O)CNC(=O)[C@H](CC(C)C)NC(=O)[C@H](Cc2c[nH]cn2)NC(=O)[C@H](Cc2c[nH]c3ccccc23)NC(=O)[C@H](C)NC1=O [F7]
yield of the labeled Fc (human IgG Fc; [5]): about 41% | yield of the labeled Fc (human IgG Fc; [6]): 90%

CC(C)C[C@@H]1NC(=O)[C@H](Cc2c[nH]cn2)NC(=O)[C@H](Cc2c[nH]c3ccccc23)NC(=O)[C@H](C)NC(=O)[C@@H](NC(=O)[C@H](CC(=O)O)NC(=O)CCNC(=O)CNC(=S)Nc2ccc(-c3c4ccc(=O)cc-4oc4cc(O)ccc34)c(C(=O)O)c2)CNC(=O)CSC[C@@H](C(=O)N[C@H](C(N)=O)[C@@H](C)O)NC(=O)[C@H](Cc2c[nH]c3ccccc23)NC(=O)[C@H](C(C)C)NC(=O)[C@H](CC(C)C)NC(=O)[C@H](CCC(=O)Nc2ccc(O)cc2)NC(=O)CNC1=O [f-F4] (X1-G[βAla]D[Dap]AWHLGE(X2)LVWCT-NH2; linker 4-14 via X3)
Kd (atezolizumab [1]): 1.5 µM

CC(=O)N[C@@H](CC(=O)O)C(=O)N[C@H]1CNC(=O)CSC[C@@H](C(=O)N[C@H](C(N)=O)[C@@H](C)O)NC(=O)[C@H](Cc2c[nH]c3ccccc23)NC(=O)[C@H](C(C)C)NC(=O)[C@H](CC(C)C)NC(=O)C(CCC(=O)Nc2cccc(OC(=O)CN=[N+]=[N-])c2)NC(=O)CNC(=O)[C@H](CC(C)C)NC(=O)[C@H](Cc2c[nH]cn2)NC(=O)[C@H](Cc2c[nH]c3ccccc23)NC(=O)[C@H](C)NC1=O (some centres unmarked) [F6]
acetylation yield compared with F1 (human IgG Fc; 3-aminophenol linker instead of 4-aminophenol): markedly decreased the acetylation yield

CC(=O)N[C@@H](CC(=O)O)C(=O)N[C@H]1CNC(=O)CSC[C@@H](C(=O)N[C@H](C(N)=O)[C@@H](C)O)NC(=O)[C@H](Cc2c[nH]c3ccccc23)NC(=O)[C@H](C(C)C)NC(=O)[C@H](CC(C)C)NC(=O)[C@H](CCC(=O)Nc2ccc(OC(=O)CN=[N+]=[N-])cc2)NC(=O)CNC(=O)[C@H](CC(C)C)NC(=O)[C@H](Cc2c[nH]cn2)NC(=O)[C@H](Cc2c[nH]c3ccccc23)NC(=O)[C@H](C)NC1=O [F1]
time to 50% completion of the acetylation reaction (human IgG Fc; 4 μM IgG Fc, 24 μM F1, PBS buffer pH 7.4, 37° C.): less than 30 min | acetylation reaction conversion within 1 h (human IgG Fc; IgG Fc 2 μM to 20 μM, F1:IgG Fc ratio 6:1, PBS pH 7.4, 37° C.): > 50% | reactivity with IgG Fc by species (human IgG Fc; human, 4 μM protein, 24 μM F1, PBS pH 7.4, 37° C., 1 h): only reacted with human and rabbit IgG Fcs | reactivity with IgG Fc by species (IgG Fc from mice): not the IgG Fc from mice | chain selectivity of acetylation (atezolizumab [2]; 37° C. for 1 h): acetylated the heavy chain only | heavy chain modified (atezolizumab [2]; in 15 minutes): ~50% | heavy chain modified (atezolizumab [2]; in 1 h): ~80% | reactivity with IgG Fc by species (rabbit IgG): only reacted with human and rabbit IgG Fcs | stability of peptide ([3]; basic condition (pH 8.5)): extremely unstable at basic condition | peptide ester lost by hydrolysis ([3]; in 1 h at pH 7.4, PBS, 37° C., 24 μM, absence of IgGs): about 70% | selectivity of acetylation in a complex protein mixture [4]: selectively acetylate IgG Fc in a protein mixture of HeLa cell lysate without an appreciable level of background reactions

CC(=O)N[C@@H](CC(=O)O)C(=O)N[C@H]1CNC(=O)CSC[C@@H](C(=O)N[C@H](C(N)=O)[C@@H](C)O)NC(=O)[C@H](Cc2c[nH]c3ccccc23)NC(=O)[C@H](C(C)C)NC(=O)[C@H](CC(C)C)NC(=O)[C@H](CCC(=O)Nc2ccc(OC(=O)c3ccc(C(=O)c4ccccc4)cc3)cc2)NC(=O)CNC(=O)[C@H](CC(C)C)NC(=O)[C@H](Cc2c[nH]cn2)NC(=O)[C@H](Cc2c[nH]c3ccccc23)NC(=O)[C@H](C)NC1=O [F10]
yield of the labeled Fc (human IgG Fc; [5]): about 5% | mass shift of Fc after reaction (MALDI-TOF MS) (human IgG Fc; 4 μM IgG Fc, 24 μM peptide, 37° C., PBS pH 7.4 2 h or borate pH 8.5 15 h): No obvious mass shift was observed | yield of the labeled Fc (human IgG Fc; [6]): 26%

CC(C)C[C@@H]1NC(=O)[C@H](Cc2c[nH]cn2)NC(=O)[C@H](Cc2c[nH]c3ccccc23)NC(=O)[C@H](C)NC(=O)[C@@H](NC(=O)[C@H](CC(=O)O)NC(=O)CCNC(=O)CNC(=S)Nc2ccc(-c3c4ccc(=O)cc-4oc4cc(O)ccc34)c(C(=O)O)c2)CNC(=O)CSC[C@@H](C(=O)N[C@H](C(N)=O)[C@@H](C)O)NC(=O)[C@H](Cc2c[nH]c3ccccc23)NC(=O)[C@H](C(C)C)NC(=O)[C@H](CC(C)C)NC(=O)[C@H](CCC(=O)Nc2ccc(NC(=O)CN=[N+]=[N-])cc2)NC(=O)CNC1=O [f-F5] (X1-G[βAla]D[Dap]AWHLGE(X4)LVWCT-NH2; linker 4-14 via X3)
Kd (atezolizumab [1]): 2 µM
